Legend:
[1] = system: TC28 cells or articular chondrocytes expressing NTPPPH PC-1; assay: PPi elaboration by PC-1 transfectants; type: cell-based; details: in the presence of antimycin A or oligomycin
Experimental: In related experiments, the effects on PPi elaboration by PC-1 transfectants of either oligomycin or antimycin A, alone or in combination with TGFβ, were determined (FIG. 4). Briefly, transient transfections were performed on 5×10^5 TC28 cells in a 35 mm tissue culture dish using Lipofectamine Plus™ (Life Technologies, Grand Island, N.Y.). Empty plasmid DNA (2 μg) or wild-type human PC-1-encoding DNA in plasmid pcDNA3.1 (2 μg) (Johnson et al., 1999 Arth. Rheum. 42:1986; Terkeltaub et al., 1994 Arthritis Rheum. 37:934–41) was added to the lipid reagent following a complex formation of the DNA to the “Plus” reagent according to the supplier's instructions, and then incubated with cells for 3 hours at 37° C. in DMEM/Fi2 medium containing 1% FCS. Cells were then washed with phosphate buffered saline (PBS), returned to complete culture medium and incubated an additional 72 hours. […] For adenoviral gene transfer, the protocol of Johnson et al. was followed (1999 Arth. Rheum. 42:1986) using articular chondrocytes which, unlike TC28 cells, cannot be efficiently transfected with plasmid DNA. […] In sum, mitochondrial function, particularly oxidative phosphorylation, appeared to provide ATP that was critical for extracellular matrix synthesis and PPi elaboration in chondrocytes.

chondrocytes = assay: Extracellular and intracellular PPi elaboration; type: cell-based, human; details: for ability of TGFβ to increase extracellular and intracellular PPi: TGFβ 10 ng/ml; for basal PPi elaboration: absence of TGFβ
Experimental: One set of experiments described in this Example and presented in FIG. 4 examined the effects of agents that inhibit mitochondrial function on PPi elaboration in the absence of TGFβ. Chondrocytes (primary cultures and immortalized cell line TC-28) were prepared, cultured and treated with oligomycin (FIG. 4A), or with antimycin A (FIG. 4B), as in the preceding Examples. Extracellular PPi was determined radiometrically, and equalized for cellular DNA, according to the method of Terkeltaub et al. (Arthritis Rheum. 41:2152–2164, 1998). To determine intracellular PPi levels, washed cells were heated at 65° C. for 45 minutes, washed again and lysed in lysis buffer (1% Triton X-100, 1.6 mM MgCl2, 0.2 M Tris, pH 8.1), essentially according to the procedures described by Lotz et al. (Proc. Natl. Acad. Sci. U.S.A. 92:10364–10368, 1995).
Another set of experiments examined the ability of inhibitors of mitochondrial function to impact the ability of TGFβ to increase intracellular and extracellular PPi levels. Antimycin A- (FIG. 4B) or oligomycin-treated (FIG. 4A) chondrocytes, as well as control (untreated) cells, prepared as described in the preceding Examples, were incubated with or without TGFβ (10 ng/ml), and levels of extracellular and intracellular PPi levels were determined.

NTPPPH = assay: Cell-associated NTPPPH activity (control study); type: cell-based; details: not shown
Articular Chondrocytes = assay: Intracellular ATP, luciferase assay; type: cell-based, human; details: 10 ng/ml TGFβ, 0.025 mM antimycin A, 0.02 μg/ml oligomycin; mean ± SD
Experimental: Human articular cartilage chondrocytes were obtained by collagenase digestion of articular cartilage samples, and subsequent monolayer culture, essentially as described by Terkeltaub et al. (Arthritis Rheum. 41:2152–2164, 1998). The starting material for these primary cultures was human articular cartilage excised during surgical joint replacement, or obtained at autopsy from normal or osteoarthritic joints. The articular chondrocytes were grown in Dulbecco's modified Eagle's Medium with high glucose (DMEM high glucose, Life Technologies, Inc. Grand Island, N.Y.) with 10% fetal calf serum (FCS), 1% glutamine, 100 U/ml penicillin and 50 μg/ml streptomycin (all reagents from Sigma, St. Louis, Mo., unless otherwise noted). Typically, only first passage cells were used in the studies described herein.
Levels of total cellular ATP were measured by a modification of luciferase-based assays known in the art (Lin et al., Anal. Biochem. 24:531–540, 1968); related assays and modifications may alternatively be used (see, e.g., Turman et al., In Vitro Cell. Dev. Biol. Anim. 32:1–4, 1996, for an assay format that uses a fluorescent plate reader). In brief, 2×10^6 cells were washed and pelleted in 10 ml phosphate-buffered saline (PBS). The cell pellets were snap-frozen in a dry ice/ethanol bath, after which […] of 0.2 M HCl was added, followed by 0.3 ml of 2 mM glycine (pH 9.0). Samples were heated at 100° C. for five minutes, then placed on ice. A standard curve was developed using 0 to 500 pmol of purified ATP (disodium salt). One hundred (100) μl of the cell extract, or purified ATP standard, was added to an equal volume of the ATP assay mixture (containing MgSO4, DTT, EDTA, luciferase and luciferin, all from the Sigma Bioluminescence Assay Kit and all diluted 1:25). Following a 5 second incubation and 15 second integration, samples were read on a TD-20/20 Luminometer (Turner Designs, Sunnyvale, Calif.). […]

CC[C@H]1/C=C/C=C/C[C@@H](C)[C@H](O)[C@@](C)(O)C(=O)[C@@H](C)[C@H](O)[C@@H](C)C(=O)[C@@H](C)[C@H](O)[C@@H](C)/C=C/C(=O)O[C@@H]2[C@H](C)[C@H](CC1)O[C@]1(CC[C@H](C)[C@H](C[C@@H](C)O)O1)[C@H]2C [oligomycin]
intracellular and extracellular PPi levels in NTPPPH PC-1 transfectants [1]: unable to increase intracellular and extracellular PPi levels | ability of TGFβ to increase extracellular and intracellular PPi (chondrocytes): abrogated the ability of TGFβ to increase extracellular and intracellular PPi | basal PPi elaboration (chondrocytes): attenuated basal PPi elaboration | cell-associated NTPPPH activity (NTPPPH): neither oligomycin nor antimycin treatment suppressed cell-associated NTPPPH activity | ATP (pmoles/μg DNA): Articular Chondrocytes (Articular Chondrocytes): 221.2 ± 14.0 pmoles/μg DNA

antimycin A
intracellular and extracellular PPi levels in NTPPPH PC-1 transfectants [1]: unable to increase intracellular and extracellular PPi levels | ability of TGFβ to increase extracellular and intracellular PPi (chondrocytes): abrogated the ability of TGFβ to increase extracellular and intracellular PPi | basal PPi elaboration (chondrocytes): attenuated basal PPi elaboration | cell-associated NTPPPH activity (NTPPPH): neither oligomycin nor antimycin treatment suppressed cell-associated NTPPPH activity | ATP (pmoles/μg DNA): Articular Chondrocytes (Articular Chondrocytes): 93.73 ± 5.9 pmoles/μg DNA

Reference: patent publication US7005274B1, “Methods and compositions for diagnosing and treating arthritic disorders and regulating bone mass” (MIGENIX Corp., priority 1999, dated 2006)
